molecular target: CB1 (CNR1) (Homo sapiens, UniProt P21554); assay: cAMP CNR1 Hunter cell line antagonist assay (CB1 assay); assay type: cell-based; conditions: antagonist mode, cAMP CNR1 Hunter cells, EC80 agonist; read-out: CB1 assay, Efficacy (IC50)
Protocol: cAMP CNR1 Hunter cell line (Eurofins DiscoveryX) were expanded from freezer stocks and seeded in a total volume of 20 μL into white walled, 384-well microplates and incubated at 37° C. for the appropriate time prior to testing. For antagonist determination, cell media was aspirated from cells and replaced with 10 μL 1:1 HBSS/Hepes:cAMP XS+Ab reagent. 5 μL of 4× compound was added to the cells and incubated at 37° C. for 30 minutes. 5 μL of 4× EC80 agonist was added to cells and incubated at 37° C. for 30 minutes. After appropriate compound incubation, assay signal was generated through incubation with 20 μL cAMP XS+ED/CL lysis cocktail for one hour followed by incubation with 20 μL cAMP XS+EA reagent for three hours at room temperature. Microplates were read following signal generation with a PerkinElmer Envision™ instrument for chemiluminescent signal detection. Compound activity (IC50) was analyzed using CBIS data analysis suite (ChemInnovation, CA).

Sequence of CB1 (CNR1) (P21554 whole entry): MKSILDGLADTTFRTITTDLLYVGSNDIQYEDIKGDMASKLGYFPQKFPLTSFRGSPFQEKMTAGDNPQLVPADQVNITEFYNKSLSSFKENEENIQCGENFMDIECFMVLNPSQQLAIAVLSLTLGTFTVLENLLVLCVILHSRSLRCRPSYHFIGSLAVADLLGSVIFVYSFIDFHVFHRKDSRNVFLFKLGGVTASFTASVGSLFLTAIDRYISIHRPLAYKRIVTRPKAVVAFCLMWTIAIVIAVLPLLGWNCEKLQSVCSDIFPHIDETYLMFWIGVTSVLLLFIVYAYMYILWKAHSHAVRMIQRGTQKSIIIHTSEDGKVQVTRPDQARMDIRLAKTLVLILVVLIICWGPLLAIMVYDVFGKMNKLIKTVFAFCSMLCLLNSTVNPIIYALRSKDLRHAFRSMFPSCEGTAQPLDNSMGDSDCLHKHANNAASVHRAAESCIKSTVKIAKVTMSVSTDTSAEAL

Row | Compound | IC50 [µM]
1 | CCc1cccc(NS(=O)(=O)c2cc3c(cc2Br)NC(=O)C(C)O3)c1 (stereo not shown) [BC19283] | 1 to 25
2 | COc1ccc(NS(=O)(=O)c2cc3c(cc2Br)NC(=O)CO3)cc1 [BC19137] | < 1
3 | CCC1Oc2cc(S(=O)(=O)NCc3ccccc3)c(Br)cc2NC1=O (stereo not shown) [BC19287] | 1 to 25
4 | CC(C)CC1Oc2cc(S(=O)(=O)Nc3ccc(F)cc3Cl)c(Br)cc2NC1=O (stereo not shown) [BC19778] | ≥ 25
5 | CCc1cccc(NS(=O)(=O)c2cc3c(cc2Br)N(C)C(=O)C(C)O3)c1 (stereo not shown) [BC19901] | ≥ 25
6 | CCc1cccc(NS(=O)(=O)c2cc3c(cc2Br)N(C)C(=O)C(CC)O3)c1 (stereo not shown) [BC19916] | 1 to 25
7 | CC(C)c1ccc(NS(=O)(=O)c2cc(S(C)(=O)=O)cc3c2OCC(=O)N3)cc1 [BC19424] | ≥ 25
8 | CC1Oc2c(cc(Cl)cc2S(=O)(=O)Nc2ccc(F)cc2)NC1=O (stereo not shown) [BC19722] | 1 to 25
9 | CC1Oc2cc(S(=O)(=O)Nc3ccccc3)c(Cl)cc2NC1=O (stereo not shown) [BC19206] | ≥ 25
10 | CCC1Oc2cc(S(=O)(=O)Nc3cccc(Cl)c3)c(Br)cc2NC1=O (stereo not shown) [BC19221] | 1 to 25
11 | CCC1Oc2cc(S(=O)(=O)NC3CCCCC3)c(Br)cc2NC1=O (stereo not shown) [BC19223] | 1 to 25
12 | CCS(=O)(=O)c1cc2c(c(S(=O)(=O)Nc3ccc(C)c(Cl)c3)c1)OCC(=O)N2 [BC19544] | ≥ 25
13 | CCS(=O)(=O)c1cc2c(c(S(=O)(=O)Nc3ccc(C)cc3)c1)OCC(=O)N2 [BC19546] | ≥ 25
14 | CCC1Oc2c(cc(Br)cc2S(=O)(=O)Nc2ccc(Cl)cc2)N(C)C1=O (stereo not shown) [BC19929] | ≥ 25
15 | CC1Oc2cc(S(=O)(=O)NCCc3ccc(OC(F)(F)F)cc3)c(Br)cc2NC1=O (stereo not shown) [BC19359] | 1 to 25
16 | CCS(=O)(=O)c1cc2c(c(S(=O)(=O)Nc3ccc(C)c(F)c3)c1)OCC(=O)N2 [BC19436] | ≥ 25
17 | CCCNS(=O)(=O)c1cc2c(cc1Cl)NC(=O)C(CC)O2 (stereo not shown) [BC19214] | ≥ 25
18 | CCC1Oc2cc(S(=O)(=O)Nc3ccc(C)c(F)c3)c(Cl)cc2NC1=O (stereo not shown) [BC19212] | 1 to 25
19 | Cc1ccc(NS(=O)(=O)c2cc3c(cc2Cl)NC(=O)C(C)O3)cc1F (stereo not shown) [BC19700] | 1 to 25
20 | CCC1Oc2c(cc(Br)cc2S(=O)(=O)NCc2ccc(F)cc2F)NC1=O (stereo not shown) [BC19374] | ≥ 25
21 | CCc1cccc(NS(=O)(=O)c2cc(Br)cc3c2OC(CC)C(=O)N3C)c1 (stereo not shown) [BC19915] | 1 to 25
22 | CCC1Oc2cc(S(=O)(=O)Nc3cccc(C(C)=O)c3)c(Cl)cc2NC1=O (stereo not shown) [BC19282] | 1 to 25

Row | Compound | IC50 [µM]
23 | CCc1cccc(NS(=O)(=O)c2cc(S(C)(=O)=O)cc3c2OCC(=O)N3)c1 [BC19487] | ≥ 25
24 | CC1Oc2cc(S(=O)(=O)NC3CCC(O)CC3)c(Br)cc2NC1=O (stereo not shown) [BC19360] | ≥ 25
25 | CCC1Oc2c(cc(Br)cc2S(=O)(=O)Nc2ccc(OC)cc2)N(C)C1=O (stereo not shown) [BC19935] | ≥ 25
26 | CC(C)CC1Oc2c(cc(Br)cc2S(=O)(=O)Nc2ccc(F)cc2)NC1=O (stereo not shown) [BC19781] | 1 to 25
27 | O=C1COc2cc(S(=O)(=O)NC3CCC(O)CC3)c(Br)cc2N1 (stereo not shown) [BC19389] | ≥ 25
28 | CC1Oc2cc(S(=O)(=O)Nc3ccc(F)cc3Cl)c(Br)cc2N(C)C1=O (stereo not shown) [BC19907] | ≥ 25
29 | CCC1Oc2cc(S(=O)(=O)NCCc3ccc(OC(F)(F)F)cc3)c(Br)cc2NC1=O (stereo not shown) [BC19373] | ≥ 25
30 | Cc1ccc(NS(=O)(=O)c2cc3c(cc2Br)NC(=O)CCO3)cc1F [BC19653] | ≥ 25
31 | CCC1Oc2c(cc(Cl)cc2S(=O)(=O)Nc2ccc(F)c(F)c2)NC1=O (stereo not shown) [BC19736] | ≥ 25
32 | O=C1NCCOc2c1cc(Br)cc2S(=O)(=O)Nc1ccc(F)cc1 [BC19549] | ≥ 25
33 | CCC1Oc2cc(S(=O)(=O)Nc3ccccc3)c(Br)cc2N(C)C1=O (stereo not shown) [BC19928] | ≥ 25
34 | CC1Oc2cc(S(=O)(=O)Nc3ccc(F)c(F)c3)c(Cl)cc2NC1=O (stereo not shown) [BC19698] | ≥ 25
35 | CNC(=O)N1c2cc(S(=O)(=O)N3CCCC3)ccc2NC(=O)C1C (stereo not shown) [BC19236] | ≥ 25
36 | CCS(=O)(=O)c1cc2c(c(S(=O)(=O)Nc3ccc(OC)cc3)c1)OCC(=O)N2 [BC19438] | ≥ 25
37 | CS(=O)(=O)c1cc2c(c(S(=O)(=O)Nc3ccc(Cl)cc3)c1)OCC(=O)N2 [BC19483] | ≥ 25
38 | CCC1Oc2c(cc(Cl)cc2S(=O)(=O)Nc2ccc(C)c(Cl)c2)NC1=O (stereo not shown) [BC19746] | 1 to 25
39 | CC1Oc2c(cc(Cl)cc2S(=O)(=O)Nc2ccc(Cl)cc2)NC1=O (stereo not shown) [BC19697] | ≥ 25
40 | CC1Oc2cc(S(=O)(=O)Nc3ccc(F)cc3F)c(Cl)cc2NC1=O (stereo not shown) [BC19709] | 1 to 25
41 | O=C1COc2cc(S(=O)(=O)Nc3ccc(F)cc3F)c(Br)cc2N1 [BC19166] | < 1
42 | O=C1COc2c(cc(Cl)cc2S(=O)(=O)Nc2ccc(Cl)cc2)N1 [BC19169] | < 1
43 | CS(=O)(=O)c1cc2c(c(S(=O)(=O)Nc3ccccc3)c1)OCC(=O)N2 [BC19482] | ≥ 25
44 | CC1Oc2cc(S(=O)(=O)Nc3cccc(F)c3)c(Br)cc2N(C)C1=O (stereo not shown) [BC19903] | 1 to 25

Row | Compound | IC50 [µM]
45 | CCC1Oc2cc(S(=O)(=O)Nc3ccc(F)cc3F)c(Cl)cc2NC1=O (stereo not shown) [BC19747] | 1 to 25
46 | CC1Oc2c(cc(Cl)cc2S(=O)(=O)Nc2ccc(F)c(F)c2)NC1=O (stereo not shown) [BC19699] | 1 to 25
47 | CCS(=O)(=O)c1cc2c(c(S(=O)(=O)Nc3ccc(F)cc3F)c1)OCC(=O)N2 [BC19545] | ≥ 25
48 | CCCNS(=O)(=O)c1cc(Br)cc2c1OC(CC)C(=O)N2 (stereo not shown) [BC19229] | ≥ 25
49 | CCc1cccc(NS(=O)(=O)c2cc(Br)cc3c2OCC(=O)N3)c1 [BC19180] | ≥ 25
50 | CCOc1ccc(NS(=O)(=O)c2cc(Cl)cc3c2OC(C)C(=O)N3)cc1 (stereo not shown) [BC19355] | 1 to 25
51 | O=C1COc2cc(S(=O)(=O)Nc3ccc(C(F)(F)F)cc3Cl)c(Br)cc2N1 [BC19390] | ≥ 25
52 | CCOc1ccc(NS(=O)(=O)c2cc(Br)cc3c2OCC(=O)N3)cc1 [BC19173] | ≥ 25
53 | Cc1ccc(NS(=O)(=O)c2cc(Cl)cc3c2OCC(=O)N3)cc1Cl [BC19176] | < 1
54 | CCC1Oc2c(cc(Br)cc2S(=O)(=O)Nc2ccc(F)cc2F)N(C)C1=O (stereo not shown) [BC19913] | 1 to 25
55 | Cc1ccc(NS(=O)(=O)c2c(C)c(Cl)cc3c2OCC(=O)N3)cc1Cl [BC19433] | ≥ 25
56 | CCC1Oc2c(cc(Br)cc2S(=O)(=O)Nc2ccc(OC(F)(F)F)cc2)N(C)C1=O (stereo not shown) [BC19921] | 1 to 25
57 | CCS(=O)(=O)c1cc2c(c(S(=O)(=O)Nc3ccc(F)cc3Cl)c1)OCC(=O)N2 [BC19442] | ≥ 25
58 | CCS(=O)(=O)c1cc2c(c(S(=O)(=O)Nc3cccc(Cl)c3)c1)OCC(=O)N2 [BC19441] | ≥ 25
59 | CC1Oc2c(cc(Br)cc2S(=O)(=O)NC2CCC(C(C)(C)C)CC2)NC1=O (stereo not shown) [BC19367] | ≥ 25
60 | CC1Oc2cc(S(=O)(=O)Nc3ccc(F)cc3F)c(Br)cc2N(C)C1=O (stereo not shown) [BC19799] | ≥ 25
61 | CCC1Oc2cc(S(=O)(=O)NCc3ccc(C(F)(F)F)cc3)c(Br)cc2NC1=O (stereo not shown) [BC19370] | ≥ 25
62 | Cc1ccc(NS(=O)(=O)c2cc3c(cc2Br)NC(=O)CCO3)cc1Cl [BC19659] | ≥ 25
63 | CC(=O)c1cccc(NS(=O)(=O)c2cc3c(cc2C)NC(=O)CO3)c1 [BC19132] | ≥ 25
64 | Cc1ccc(NS(=O)(=O)c2cc3c(cc2Cl)NC(=O)C(C)O3)cc1Cl (stereo not shown) [BC19708] | ≥ 25
65 | Cc1ccc(NS(=O)(=O)c2cc3c(cc2C)NC(=O)CO3)cc1 [BC19134] | < 1
66 | Cc1ccc(NS(=O)(=O)c2cc(Br)cc3c2OCCNC3=O)cc1F [BC19552] | ≥ 25

Row | Compound | IC50 [µM]
67 | CC1C(=O)Nc2ccc(S(=O)(=O)N3CCCC3)cc2N1C (stereo not shown) [BC19296] | 1 to 25
68 | CC1Oc2c(cc(Br)cc2S(=O)(=O)Nc2cccc(F)c2)N(C)C1=O (stereo not shown) [BC19902] | ≥ 25
69 | O=C1CCOc2cc(S(=O)(=O)Nc3ccc(F)cc3Cl)c(Br)cc2N1 [BC19658] | ≥ 25
70 | CC1Oc2c(cc(Cl)cc2S(=O)(=O)Nc2cccc(F)c2)NC1=O (stereo not shown) [BC19714] | ≥ 25
71 | CCC1Oc2c(cc(Cl)cc2S(=O)(=O)Nc2ccc(OC)c(Cl)c2)NC1=O (stereo not shown) [BC19744] | ≥ 25
72 | CC1C(=O)Nc2ccc(S(=O)(=O)N3CCCC3)cc2N1C(=O)N1CCOCC1 (stereo not shown) [BC19297] | ≥ 25
73 | CC1Oc2c(cc(Br)cc2S(=O)(=O)NCCc2ccc(OC(F)(F)F)cc2)NC1=O (stereo not shown) [BC19364] | 1 to 25
74 | CCC1Oc2cc(S(=O)(=O)Nc3ccc(C)c(Cl)c3)c(Cl)cc2NC1=O (stereo not shown) [BC19745] | 1 to 25
75 | CCCNS(=O)(=O)c1cc2c(cc1Br)NC(=O)C(CC)O2 (stereo not shown) [BC19222] | 1 to 25
76 | CC1Oc2cc(S(=O)(=O)Nc3cccc(Cl)c3)c(Cl)cc2NC1=O (stereo not shown) [BC19715] | < 1
77 | CCS(=O)(=O)c1cc2c(c(S(=O)(=O)Nc3ccc(OC)c(Cl)c3)c1)OCC(=O)N2 [BC19547] | ≥ 25
78 | CCC1Oc2cc(S(=O)(=O)Nc3ccc(Cl)cc3)c(Br)cc2N(C)C1=O (stereo not shown) [BC19930] | ≥ 25
79 | CC(C)c1ccc(NS(=O)(=O)c2cc3c(cc2Br)NC(=O)CCO3)cc1 [BC19691] | 1 to 25
80 | CCc1ccc(NS(=O)(=O)c2cc3c(cc2Cl)NC(=O)C(CC)O3)cc1 (stereo not shown) [BC19741] | 1 to 25
81 | CCS(=O)(=O)c1cc2c(c(S(=O)(=O)Nc3ccc(Cl)cc3)c1)OCC(=O)N2 [BC19491] | ≥ 25
82 | Cc1c(Cl)cc2c(c1S(=O)(=O)Nc1ccc(OC(F)(F)F)cc1)OCC(=O)N2 [BC19490] | ≥ 25
83 | CC1Oc2c(cc(Br)cc2S(=O)(=O)Nc2ccc(F)c(F)c2)N(C)C1=O (stereo not shown) [BC19787] | ≥ 25
84 | Cc1ccc(NS(=O)(=O)c2cc(Br)cc3c2OCCC(=O)N3)cc1Cl [BC19651] | ≥ 25
85 | CCS(=O)(=O)c1cc2c(c(S(=O)(=O)Nc3ccc(C(C)C)cc3)c1)OCC(=O)N2 [BC19493] | ≥ 25
